Measurements: patent publication US8318954B2, “Cleavable carnitine compound” (Nou Life Sciences, Inc., priority 2006, dated 2012)

How the values were obtained:
Format in all cases: in vivo
C. elegans [1] = experiment: Visual scoring of C. elegans after overnight incubation with compound in 24 well plate; details: for visual scoring of well clearance: L3/L4-stage N2 animals
Experimental: (§1) One 24 well microtiter plate was set up and incubated overnight on the shaker at 20 C. Each well on the plate was set up with 600 L3/L4-stage N2 animals in NGM with a 1:20 dilution of concentrated HB101 E. coli (food source) in a volume of 300 μl. Before the animal/HB101 solution was added, test compounds were pipetted into wells. For water controls and compound stocks/dilutions in water (DHLA, NAC) 6 μl was added to each well (1:50 dilutions). For DMSO controls and compound stocks/dilutions in DMSO (LA) 3 μl was added to each well (1:100 dilutions). No OD620 measurements were taken but the animals were visually scored after 19 h incubation.
One 24 well microtiter plate was set up and incubated overnight on the shaker at 20° C. Each well on the plate was set up with 600 L3/L4-stage N2 animals in NGM with a 1:20 dilution of concentrated HB101 E. coli (food source) in a volume of 300 μl. Before the animal/HB101 solution was added, test compounds were pipetted into wells. For DMSO controls and compound stocks/dilutions in DMSO (LC) 3 μl was added to each well (1:100 dilutions). No OD620 measurements were taken but the animals were visually scored after 19 h incubation).
One 24 well microtiter plate was set up and incubated overnight on the shaker at 20° C. Each well on the plate was set up with 600 L3/L4-stage N2 animals in NGM with a 1:20 dilution of concentrated HB101 E. coli (food source) in a volume of 300 μl. Before the animal/HB101 solution was added, test compounds were pipetted into wells. For DMSO controls and compound stocks/dilutions in DMSO (LC) 3 μl was added to each well (1:100 dilutions). No OD620 measurements were taken but the animals were visually scored after 22 h incubation).

C. elegans [2] = experiment: Thermal avoidance (TAV) 3 step dose response testing; details: for effects indicating increased sensory sensitivity: 0%, 6%, 12% laser intensity
Text: The present invention includes a series of compounds that may be useful for increasing sensory neuron function in certain human neuropathological conditions. C. elegans contains a number of sensory neurons which are responsible for detecting a variety of external stimuli. One such stimulus (heat) can be detected and quantified in C. elegans by the use of thermal avoidance (TAV) technology available through NemaRx. The goal of this experiment was to provide an initial characterization of the compounds via TAV. Specifically, it was asked whether any of these compounds can lead to an increase in the thermal stimulus-induced behavioral response measured by TAV. N2 strain C. elegans animals were used for this project, which have ‘normal’, i.e. wildtype, sensory neuron function. Four compounds were received by NemaRx for TAV testing. These compounds were:
as §1
Dose Responses—setup: All of the wells from the 24 well plate were used for dose response testing and the entire well contents (600 animals) were used for each test. Prior to being placed on the agar plate for TAV testing each sample was processed as follows: • sample were transferred to glass tube containing 7 ml PBS • animals were allowed to settle for 5 minutes before most of the supernatant was removed (approx. 0.5 ml remaining in tube) • 7 ml PBS was then added, mixed and animals were allowed to settle for 5 minutes most of the supernatant was then removed • animals were removed and transferred to TAV testing plate (NRx Application pattern A) • plate was allowed to dry for 10 minutes (plate cover removed) and TAV testing was initiated. Per plate settings for the dose response experiments were as follows:
Dose Responses—general notes on analysis: A response of the animals to a thermal stimulus (laser) which is applied to the head region can be detected both by a change in the direction of movement, as well as by a change in speed occurring within the test interval where the stimulus is applied. • direction of movement. […] Animals that show a strong change in the direction of movement, i.e. reversals, are classified as LR5 responders. […] LR5 responders show a thermal intensity-dependent increase in the speed of movement (starting off with less than <prelaser speed at low intensities up to > pre-laser speed at high intensities)
The dose response experiments for the current project were carried out with 0% (background control), 6% and 12% settings of laser intensity. In practice, 6% is on the edge of laser intensity required to detect an increase in the number of LR5 responders. As such, 6% should be a useful intensity-setting to detect compound-induced increased sensitivity in the animals. The 12% setting was chosen because this intensity typically gives a robust increase in the number of LR5 responders.
Total Responder speeds, ‘LR1 Responder speeds’ and ‘LR5 Responder speeds’ are shown as normalized speeds to allow better comparison between samples. For normalization purposes the average pre-laser speed is set at 1.0 and responder speeds are calculated relative to this value.
One 24 well microtiter plate was set up and incubated overnight on the shaker at 20° C. Each well on the plate was set up with 600 L3/L4-stage N2 animals in NGM with a 1:20 dilution of concentrated HB101 E. coli (food source) in a volume of 300 μl. […]

C. elegans [3] = experiment: Thermal avoidance (TAV) single intensity testing (6% laser intensity)
Experimental: One 24 well microtiter plate was set up and incubated overnight on the shaker at 20° C. Each well on the plate was set up with 600 L3/L4-stage N2 animals in NGM with a 1:20 dilution of concentrated HB101 E. coli (food source) in a volume of 300 μl. Before the animal/HB101 solution was added, test compounds were pipetted into wells. 3 μl each for the DMSO controls and LA dilutions were added to each well (1:100 dilutions). Controls and LA dilutions were done in triplicate (total of 9 wells).
6% Response tests—setup: All 9 wells from the 24 well plate were used for 6% testing and the entire well contents (600 animals) were used for each test. Prior to being placed on the agar plate for TAV testing each sample was processed as described for ‘Dose Responses’.
Dose Responses—general notes on analysis: Analysis similar as described in ‘Dose Responses’. In addition, ‘Response ratios’ as well as ‘A Speed responses’ both give measures of how much individual animals changed speed in response to the stimulus (additional information available upon request).
One 24 well microtiter plate was set up and incubated overnight on the shaker at 20° C. Each well on the plate was set up with 600 L3/L4-stage N2 animals in NGM with a 1:20 dilution of concentrated HB101 E. coli (food source) in a volume of 300 μl. Before the animal/HB101 solution was added, test compounds were pipetted into wells. 6 μl each for the water controls and compound dilutions were added to each well (1:50 dilutions). Controls and compound dilutions were done in triplicate (total of 15 wells).
6% Response tests—setup: All 15 wells from the 24 well plate were used for 6% testing) and the entire well contents (600 animals) were used for each test. Prior to being placed on the agar plate for TAV testing each sample was processed as described for ‘Dose Responses’.
One 24 well microtiter plate was set up and incubated overnight on the shaker at 20° C. Each well on the plate was set up with 600 L3/L4-stage N2 animals in NGM with a 1:20 dilution of concentrated HB101 E. coli (food source) in a volume of 300 μl. Before the animal/HB101 solution was added, test compounds were pipetted into wells. 3 μl each for the DMSO controls and LC dilutions were added to each well (1:100 dilutions). Controls and LC dilutions were done in triplicate (total of 9 wells).

[4] = even at highest concentration 2 mM (LC)

Compound | visual scoring of well clearance (C. elegans [1]; LA1, 10 mM final concentration in well, 19 h incubation) | visual scoring of well clearance (C. elegans [1]; LA2, 5 mM final concentration in well, 19 h incubation) | effects indicating increased sensory sensitivity (C. elegans [2]; even at highest non-toxic concentration of 2 mM) | speed of LR1 responders (C. elegans [2]; LA3 dilution) | percentage of LR5 responders (C. elegans [2]; dilutions LA4, LA5 and LA6, similar to the last DMSO control) | toxicity evident from 'Frames viewed' and 'Average Speeds' (C. elegans [2]; two highest LA concentrations (LA1, LA2)) | effects indicating increased sensory sensitivity (C. elegans [3]; 2 mM or 1 mM) | visual scoring (toxicity) (C. elegans [1]; LC, 22 h incubation) | visual scoring (toxicity) (C. elegans [1]; all LC dilutions LC1-LC6 (up to 2 mM), 19 h incubation) | effects indicating increased sensory sensitivity (C. elegans [2]; [4]) | effects indicating increased sensory sensitivity (C. elegans [3]; [4])
O=C(O)CCCCC1CCSS1 (centres unmarked) [LA, Lipoic acid] | most bacteria remaining | some bacteria remaining | No obvious effects detected | relatively low | relatively high | toxicity is observed | No effects detected | – | – | – | –
Acetyl-L-Carnitine-Lipoic acid conjugate [LC Conjugate] | – | – | – | – | – | – | – | no toxicity observed | no toxicity observed | No obvious effects detected | No obvious effects detected
